Assay [1] addresses T1, KRASG12D (Homo sapiens, UniProt P01116, G12D).
T1 construct: made in house; host or cells: E. coli BL21 (DE3)
Put plainly: Bio-Biochem-PPI-HTRF Ras-SOS1 interaction assay (KRAS G12D). Format: biochemical. Conditions: 5 nM. As for the experimental part:
(§1) The assay buffer can contain −5 mM HEPES pH 7.4, ˜150 mM NaCl, ˜ 1 mM DTT, 0.05% BSA and 0.0025% (v/v) Igepal. A Ras working solution is prepared in an assay buffer containing typically a suitable amount of the protein construct (e.g., GST-tagged K-Ras mutant) and the FRET donor (e.g., antiGST-Eu(K) from Cisbio, France). A SOS1 working solution is prepared in an assay buffer containing suitable amount of the protein construct (e.g., His-hSOS1) and the FRET acceptor (e.g., anti-6His-XL665 from Cisbio, France). A suitable amount of the protein construct will depend on the range of activity or range of IC50 values being detected or under investigation. For detecting IC50 within a range of 500 nM, the protein constructs of the same range of molarity can be utilized. […] A fixed volume of DMSO with or without test compound is transferred into a 384-well plate. Ras working solution is added to all wells of the test plate. SOS1 working solution is added to all wells except for those that are subsequently filled the inhibitor control solution. Upon incubation for about 10 minutes or longer, the fluorescence is measured with a M1000Pro plate reader (Tecan) using HTRF detection (excitation 337 nm, emission 1:620 nm, emission 2: 665 nm). Compounds are tested in duplicates at different concentrations (for example, 10 μM, 2.5 μM, 0.63 μM, 0.16 μM, 0.04 μM, 0.01 μM test compound). The ratiometric data (i.e., emission 2 divided by emission 1) is used to calculate IC50 values against Ras using GraphPad Prism (GraphPad software). Following this general procedure, samples were tested with or without a subject compound disclosed herein including compounds exemplified in Table 1 to assess their abilities to inhibit a mutant K-Ras relative to another mutant K-Ras or wildtype K-Ras. Signaling output measured in terms of IC50 values can be obtained, a ratio of IC50 against one mutant relative to another mutant can be calculated. For instance, a selective reduction of K-Ras G12D signaling output can be evidenced by a ratio greater than one. In particular, a selective reduction of K-Ras G12D signaling relative to K-Ras WT signaling is evidenced as the ratio of IC50 (against K-Ras WT) to IC50 (against K-Ras G12D) is greater than 1.
Background: TR-FRET usually uses a lanthanide donor and a delayed reading to cut background.

The target of assay [2] is T2, KRASwt (Homo sapiens, UniProt P01116).
T2 construct: made in house; host or cells: E. coli BL21 (DE3)
T2 sequence (P01116 1-188 isoform P01116-2): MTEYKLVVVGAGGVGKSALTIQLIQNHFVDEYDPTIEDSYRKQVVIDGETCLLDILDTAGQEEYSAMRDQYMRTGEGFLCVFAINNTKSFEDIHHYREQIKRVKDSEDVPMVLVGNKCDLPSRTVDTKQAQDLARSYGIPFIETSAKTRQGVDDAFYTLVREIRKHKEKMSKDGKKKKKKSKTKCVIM
Put plainly: Bio-Biochem-PPI-HTRF Ras-SOS1 interaction assay (KRAS wt). The format is biochemical. Conditions: 5 nM. As for the experimental part: as §1

T1 sequence (P01116 1-188 isoform P01116-2 G12D): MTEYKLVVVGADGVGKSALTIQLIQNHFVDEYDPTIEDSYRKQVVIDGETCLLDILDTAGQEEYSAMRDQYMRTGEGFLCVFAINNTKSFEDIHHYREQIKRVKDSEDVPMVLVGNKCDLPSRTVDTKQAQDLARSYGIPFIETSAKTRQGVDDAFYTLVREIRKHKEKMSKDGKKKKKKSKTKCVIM

In the case of `C[C@H](Oc1nc(N2CCCC3(CN(C(=O)[C@@H]4C[C@H]4F)C3)C2)c2cc(Cl)c(-c3ccc(F)c4sc(N)c(C#N)c34)c(F)c2n1)[C@@H]1CCCN1C` [compound 126, 2-amino-4-(6-chloro-8-fluoro-4-(2-((1S,2R)-2-fluorocyclopropane-1-carbonyl)-2,6-diazaspiro[3.5]nonan-6-yl)-2-((S)-1-((S)-1-methylpyrrolidin-2-yl)ethoxy)quinazolin-7-yl)-7-fluorobenzo[b] thiophene-3-carbonitrile], the IC50 in assay [1] and in assay [2] was < 5 µM throughout.
Consider `C[C@H](Oc1nc(N2CCCC3(CN(C(=O)c4ccnn4C)C3)C2)c2cc(Cl)c(-c3ccc(F)c4sc(N)c(C#N)c34)c(F)c2n1)[C@@H]1CCCN1C` [compound 127, 2-amino-4-(6-chloro-8-fluoro-4-(2-(1-methyl-1H-pyrazole-5-carbonyl)-2,6-diazaspiro[3.5]nonan-6-yl)-2-((S)-1-((S)-1-methylpyrrolidin-2-yl)ethoxy)quinazolin-7-yl)-7-fluorobenzo[b]thiophene-3-carbonitrile], for which the IC50 in assay [1] and in assay [2] was < 5 µM throughout.
As for `Nc1nc2c(-c3c(Cl)cc4c(N5CCOC6(CCNCC6)C5)nc(OCC56CCCN5C[C@H](F)C6)nc4c3F)ccc(F)c2s1` (stereo partly drawn) [compound 129, 4-(6-chloro-8-fluoro-2-(((2R)-2-fluorotetrahydro-1H-pyrrolizin-7a(5H)-yl)methoxy)-4-(1-oxa-4,9-diazaspiro[5.5]undecan-4-yl)quinazolin-7-yl)-7-fluorobenzo[d]thiazol-2-amine], the IC50 in assay [1] and in assay [2] was < 5 µM throughout.
Regarding `Nc1nc2c(-c3c(Cl)cc4c(N5CCCC6(CCNC6)C5)nc(OC[C@@]56CCCN5C[C@H](F)C6)nc4c3F)ccc(F)c2s1` (stereo partly drawn) [compound 130, 4-(6-chloro-8-fluoro-2-(((2R,7aS)-2-fluorotetrahydro-1H-pyrrolizin-7a(5H)-yl)methoxy)-4-(2,7-diazaspiro[4.5]decan-7-yl)quinazolin-7-yl)-7-fluorobenzo[d]thiazol-2-amine], the IC50 in assay [1] and in assay [2] was < 5 µM in each case.
In the case of `N#Cc1c(N)sc2c(F)ccc(-c3c(Cl)cc4c(N5CCC6(CC5)CN(C(=O)C5CC5(F)F)C6)nc(OC[C@@]56CCCN5C[C@H](F)C6)nc4c3F)c12` (stereo partly drawn) [compound 131, 2-amino-4-(6-chloro-4-(2-(2,2-difluorocyclopropane-1-carbonyl)-2,7-diazaspiro[3.5]nonan-7-yl)-8-fluoro-2-(((2R,7aS)-2-fluorotetrahydro-1H-pyrrolizin-7a(5H)-yl)methoxy)quinazolin-7-yl)-7-fluorobenzo[b]thiophene-3-carbonitrile], the IC50 in assay [1] and in assay [2] was < 5 µM in each case.
`Cn1nccc1C(=O)N1CC2(CCCCN(c3nc(OC[C@@]45CCCN4C[C@H](F)C5)nc4c(F)c(-c5ccc(F)c6sc(N)c(C#N)c56)c(Cl)cc34)C2)C1` [compound 134, 2-amino-4-(6-chloro-8-fluoro-2-(((2R,7aS)-2-fluorotetrahydro-1H-pyrrolizin-7a(5H)-yl)methoxy)-4-(2-(1-methyl-1H-pyrazole-5-carbonyl)-2,6-diazaspiro[3.6]decan-6-yl)quinazolin-7-yl)-7-fluorobenzo[b]thiophene-3-carbonitrile]: the IC50 in assay [1] and in assay [2] was < 5 µM in each case.
With `COCC(=O)N1CC2(CCCN(c3nc(O[C@@H](C)[C@@H]4CCCN4C)nc4c(F)c(-c5ccc(F)c6sc(N)c(C#N)c56)c(Cl)cc34)C2)C1` [compound 138, 2-amino-4-(6-chloro-8-fluoro-4-(2-(2-methoxyacetyl)-2,6-diazaspiro[3.5]nonan-6-yl)-2-((S)-1-((S)-1-methylpyrrolidin-2-yl)ethoxy)quinazolin-7-yl)-7-fluorobenzo[b]thiophene-3-carbonitrile], the IC50 in assay [1] and in assay [2] was < 5 µM in each case.
Consider `Nc1nc2c(-c3c(Cl)cc4c(N5CCC6(CC5)CN(C(=O)C(F)F)C6)nc(OC[C@@]56CCCN5C[C@H](F)C6)nc4c3F)ccc(F)c2s1` [compound 139, 1-(7-(7-(2-amino-7-fluorobenzo[d]thiazol-4-yl)-6-chloro-8-fluoro-2-(((2R,7aS)-2-fluorotetrahydro-1H-pyrrolizin-7a(5H)-yl)methoxy)quinazolin-4-yl)-2,7-diazaspiro[3.5]nonan-2-yl)-2,2-difluoroethan-1-one], for which the IC50 in assay [1] and in assay [2] was < 5 µM in each case.
With `N#Cc1c(N)sc2c(F)ccc(-c3c(Cl)cc4c(N5CCC6(CN(C(=O)C7CC7(F)F)C6)C5)nc(OC[C@@]56CCCN5C[C@H](F)C6)nc4c3F)c12` (stereo partly drawn) [compound 143, 2-amino-4-(6-chloro-4-(2-(2,2-difluorocyclopropane-1-carbonyl)-2,6-diazaspiro[3.4]octan-6-yl)-8-fluoro-2-(((2R,7aS)-2-fluorotetrahydro-1H-pyrrolizin-7a(5H)-yl)methoxy)quinazolin-7-yl)-7-fluorobenzo[b]thiophene-3-carbonitrile], the IC50 in assay [1] and in assay [2] was < 5 µM throughout.
Consider `CN(C)CC(=O)N1CC2(CCCN(c3nc(OC[C@@]45CCCN4C[C@H](F)C5)nc4c(F)c(-c5ccc(F)c6sc(N)c(C#N)c56)c(Cl)cc34)C2)C1` [compound 144, 2-amino-4-(6-chloro-4-(2-(dimethylglycyl)-2,6-diazaspiro[3.5]nonan-6-yl)-8-fluoro-2-(((2R,7aS)-2-fluorotetrahydro-1H-pyrrolizin-7a(5H)-yl)methoxy)quinazolin-7-yl)-7-fluorobenzo[b]thiophene-3-carbonitrile], for which the IC50 in assay [1] and in assay [2] was < 5 µM each time.
With `N#Cc1c(N)sc2c(F)ccc(-c3c(Cl)cc4c(N5CCCC6(CNC6)C5)nc(OC[C@@]56CCCN5C[C@H](F)C6)nc4c3F)c12` [compound 147, 2-amino-4-(6-chloro-8-fluoro-2-(((2R,7aS)-2-fluorotetrahydro-1H-pyrrolizin-7a(5H)-yl)methoxy)-4-(2,6-diazaspiro[3.5]nonan-6-yl)quinazolin-7-yl)-7-fluorobenzo[b]thiophene-3-carbonitrile], the IC50 in assay [1] and in assay [2] was < 5 µM each time.
As for `C[C@H](Oc1nc(N2CCCC3(CN(C(=O)C4CC4(F)F)C3)C2)c2cc(Cl)c(-c3ccc(F)c4sc(N)c(C#N)c34)c(F)c2n1)[C@@H]1CCCN1C` (stereo partly drawn) [compound 148, 2-amino-4-(6-chloro-4-(2-(2,2-difluorocyclopropane-1-carbonyl)-2,6-diazaspiro[3.5]nonan-6-yl)-8-fluoro-2-((S)-1-((S)-1-methylpyrrolidin-2-yl)ethoxy)quinazolin-7-yl)-7-fluorobenzo[b]thiophene-3-carbonitrile], the IC50 in assay [1] and in assay [2] was < 5 µM each time.
As for `N#Cc1c(N)sc2c(F)ccc(-c3c(Cl)cc4c(N5CCCCC6(CNC6)C5)nc(OC[C@@]56CCCN5C[C@H](F)C6)nc4c3F)c12` [compound 149, 2-amino-4-(6-chloro-8-fluoro-2-(((2R,7aS)-2-fluorotetrahydro-1H-pyrrolizin-7a(5H)-yl)methoxy)-4-(2,6-diazaspiro[3.6]decan-6-yl)quinazolin-7-yl)-7-fluorobenzo[b]thiophene-3-carbonitrile], the IC50 in assay [1] and in assay [2] was < 5 µM throughout.
For the compound `Nc1nc2c(-c3c(Cl)cc4c(N5CCOC6(CCNC6)C5)nc(OCC56CCCN5C[C@H](F)C6)nc4c3F)ccc(F)c2s1` (stereo partly drawn) [compound 150, 4-(6-chloro-8-fluoro-2-(((2R)-2-fluorotetrahydro-1H-pyrrolizin-7a(5H)-yl)methoxy)-4-(6-oxa-2,9-diazaspiro[4.5]decan-9-yl)quinazolin-7-yl)-7-fluorobenzo[d]thiazol-2-amine], the IC50 in assay [1] and in assay [2] was < 5 µM in each case.
For `CC(C)NC(=O)N1CC2(CC(Nc3nc(OCC45CCCN4C[C@H](F)C5)nc4c(F)c(-c5ccc(F)c6sc(N)c(C#N)c56)c(Cl)cc34)C2)C1` (stereo partly drawn) [compound 151, 6-((7-(2-amino-3-cyano-7-fluorobenzo[b]thiophen-4-yl)-6-chloro-8-fluoro-2-(((2R)-2-fluorotetrahydro-1H-pyrrolizin-7a(5H)-yl)methoxy)quinazolin-4-yl)amino)-N-isopropyl-2-azaspiro[3.3]heptane-2-carboxamide], the concentration for half-maximal inhibition (IC50) in assay [1] and in assay [2] was < 5 µM throughout.

Source of the values: patent US20240109918A1, “HETEROCYCLIC COMPOUNDS AND USES THEREOF” (Kumquat Biosciences Inc., priority 2022, published 2024).
